The values below come from the supplement of paper PMC6045584.

± gives the standard deviation of the averaged measurements.

Compound in one assay: CN(C)CC[C@H](CSc1ccccc1)Nc1ccc(S(=O)(=O)NC(=O)c2ccc(N3CCN(Cc4ccccc4-c4ccc(Cl)cc4)CC3)cc2)cc1[N+](=O)[O-] [ABT-737]
Description: surviving fraction relative to DMSO-only wells; higher = less growth inhibition. The conditions noted are these: exposure time: 5 days. An outline of the steps:
(§1)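 Inhibitors were tested at 0.5, 1, 5, 10, 50, 100, 500 and 1000 nM, applied continuously for five days beginning 24 hours after log-phase tumour cells were seeded at 250–500 per well in 384-well plates. CellTiter-Glo luminescence served as the viability measure, expressed as surviving fraction against the median of DMSO-only wells. Each line, screened three times, was kept only with replicate Pearson r >0.7 and median Z' >0.3.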

Compound in a further assay: O=c1[nH]cc(F)c(=O)[nH]1 [FLUOROURACIL]
The description is as above. As to conditions: exposure time: 5 days. An outline of the steps:
as §1

For CADOES1 SOFT TISSUE, the surviving fraction in the assay with ABT-737 (0.5 nM) came out at 0.92 ± 0.1; with ABT-737 (1 nM) it was 0.85 ± 0.18; with ABT-737 (5 nM) it was 0.915 ± 0.1; with ABT-737 (10 nM) it was 0.874 ± 0.039; with ABT-737 (50 nM) it was 0.748 ± 0.081; with ABT-737 (100 nM), 0.679 ± 0.068. The surviving fraction came to 0.679 ± 0.015 in the assay with ABT-737 (500 nM); 0.689 ± 0.049 with ABT-737 (1000 nM); 0.969 ± 0.035 in the assay with FLUOROURACIL (0.5 nM); 0.925 ± 0.057 in the assay with FLUOROURACIL (1 nM); 0.907 ± 0.13 in the assay with FLUOROURACIL (5 nM); 0.963 ± 0.097 with FLUOROURACIL (10 nM). Besides, the surviving fraction came out at 0.968 ± 0.03 in the assay with FLUOROURACIL (50 nM), 0.912 ± 0.098 with FLUOROURACIL (100 nM), 0.905 ± 0.055 in the assay with FLUOROURACIL (500 nM) and 0.775 ± 0.081 in the assay with FLUOROURACIL (1000 nM).
Consider CAL51 BREAST, for which the surviving fraction was 1.03 ± 0.062 with ABT-737 (0.5 nM); 0.941 ± 0.066 with ABT-737 (1 nM); 1.07 ± 0.031 in the assay with ABT-737 (5 nM); 1.04 ± 0.02 in the assay with ABT-737 (10 nM); 1.04 ± 0.021 with ABT-737 (50 nM); 1.08 ± 0.086 with ABT-737 (100 nM). Also, the surviving fraction is 1.09 ± 0.017 with ABT-737 (500 nM); 0.959 ± 0.048 with ABT-737 (1000 nM); 0.931 ± 0.016 in the assay with FLUOROURACIL (0.5 nM); 0.918 ± 0.09 with FLUOROURACIL (1 nM); 0.944 ± 0.048 with FLUOROURACIL (5 nM); 0.971 ± 0.016 with FLUOROURACIL (10 nM). Also, the surviving fraction with FLUOROURACIL (50 nM) stood at 1 ± 0.057; in the assay with FLUOROURACIL (100 nM) it was 0.904 ± 0.017; in the assay with FLUOROURACIL (500 nM) it was 0.915 ± 0.015; with FLUOROURACIL (1000 nM), 0.763 ± 0.018.
Take CAL72 BONE: the surviving fraction in the assay with ABT-737 (0.5 nM) worked out at 1.04 ± 0.13; with ABT-737 (1 nM) it was 1.06 ± 0.12; in the assay with ABT-737 (5 nM) it was 1.06 ± 0.1; with ABT-737 (10 nM), 1.05 ± 0.12; in the assay with ABT-737 (50 nM), 1.11 ± 0.14; with ABT-737 (100 nM), 1.06 ± 0.13. For the same test system, the surviving fraction with ABT-737 (500 nM) came to 1.08 ± 0.12; with ABT-737 (1000 nM), 1.06 ± 0.17; in the assay with FLUOROURACIL (0.5 nM), 1.07 ± 0.014; with FLUOROURACIL (1 nM), 1.056 ± 0.0093; with FLUOROURACIL (5 nM), 1.03 ± 0.051; with FLUOROURACIL (10 nM), 1.05 ± 0.039. Moreover, the surviving fraction was 1.02 ± 0.037 with FLUOROURACIL (50 nM), 0.944 ± 0.093 in the assay with FLUOROURACIL (100 nM), 0.955 ± 0.16 in the assay with FLUOROURACIL (500 nM) and 0.751 ± 0.16 in the assay with FLUOROURACIL (1000 nM).
Consider CAL120 BREAST, for which the surviving fraction in the assay with ABT-737 (0.5 nM) came to 0.984 ± 0.03; with ABT-737 (1 nM), 0.9688 ± 0.0083; in the assay with ABT-737 (5 nM), 0.981 ± 0.051; with ABT-737 (10 nM) it was 0.984 ± 0.061; with ABT-737 (50 nM) it was 0.997 ± 0.018; in the assay with ABT-737 (100 nM), 0.998 ± 0.038. In addition, the surviving fraction in the assay with ABT-737 (500 nM) amounted to 0.992 ± 0.012; with ABT-737 (1000 nM), 0.773 ± 0.11; in the assay with FLUOROURACIL (0.5 nM) it was 0.986 ± 0.039; with FLUOROURACIL (1 nM), 0.991 ± 0.041; with FLUOROURACIL (5 nM) it was 0.989 ± 0.034; in the assay with FLUOROURACIL (10 nM), 0.979 ± 0.069. Further, the surviving fraction with FLUOROURACIL (50 nM) was 0.967 ± 0.015; in the assay with FLUOROURACIL (100 nM), 0.938 ± 0.032; with FLUOROURACIL (500 nM), 0.983 ± 0.043; in the assay with FLUOROURACIL (1000 nM), 0.803 ± 0.024.
As to CASKI CERVIX, the surviving fraction with ABT-737 (0.5 nM) was found to be 0.912 ± 0.075; with ABT-737 (1 nM), 0.896 ± 0.038; with ABT-737 (5 nM) it was 0.9707 ± 0.0083; in the assay with ABT-737 (10 nM), 0.937 ± 0.021; with ABT-737 (50 nM) it was 1.08 ± 0.015; with ABT-737 (100 nM), 1.06 ± 0.094. The surviving fraction amounted to 0.931 ± 0.092 with ABT-737 (500 nM); 0.715 ± 0.026 in the assay with ABT-737 (1000 nM); 0.957 ± 0.037 in the assay with FLUOROURACIL (0.5 nM); 0.928 ± 0.045 with FLUOROURACIL (1 nM); 0.935 ± 0.04 with FLUOROURACIL (5 nM); 0.941 ± 0.068 with FLUOROURACIL (10 nM). Besides, the surviving fraction with FLUOROURACIL (50 nM) came out at 0.92 ± 0.046; with FLUOROURACIL (100 nM), 0.916 ± 0.066; with FLUOROURACIL (500 nM), 0.801 ± 0.045; with FLUOROURACIL (1000 nM), 0.555 ± 0.033.
On to CHLA90 AUTONOMIC GANGLIA, for which the surviving fraction in the assay with ABT-737 (0.5 nM) stood at 0.98 ± 0.054; with ABT-737 (1 nM) it was 0.955 ± 0.068; in the assay with ABT-737 (5 nM), 0.961 ± 0.043; with ABT-737 (10 nM) it was 0.99 ± 0.091; with ABT-737 (50 nM) it was 1.02 ± 0.064; with ABT-737 (100 nM), 1.01 ± 0.12. In addition, the surviving fraction with ABT-737 (500 nM) was 0.979 ± 0.093; with ABT-737 (1000 nM), 0.997 ± 0.13; with FLUOROURACIL (0.5 nM) it was 0.951 ± 0.021; in the assay with FLUOROURACIL (1 nM), 0.946 ± 0.043; with FLUOROURACIL (5 nM) it was 0.939 ± 0.059; with FLUOROURACIL (10 nM) it was 1 ± 0.13. For the same test system, the surviving fraction with FLUOROURACIL (50 nM) worked out at 1.07 ± 0.054; with FLUOROURACIL (100 nM), 1.04 ± 0.084; with FLUOROURACIL (500 nM), 0.91 ± 0.12; with FLUOROURACIL (1000 nM), 0.886 ± 0.09.
Turning to CME SYNOVIAL, the surviving fraction with ABT-737 (0.5 nM) is 1.33 ± 0.17; with ABT-737 (1 nM), 1.37 ± 0.049; with ABT-737 (5 nM), 1.42 ± 0.099; with ABT-737 (10 nM), 1.37 ± 0.11; in the assay with ABT-737 (50 nM), 1.27 ± 0.23; in the assay with ABT-737 (100 nM), 1.42 ± 0.14. Further, the surviving fraction with ABT-737 (500 nM) is 1.21 ± 0.099; with ABT-737 (1000 nM), 1.23 ± 0.07; in the assay with FLUOROURACIL (0.5 nM), 1.35 ± 0.12; with FLUOROURACIL (1 nM) it was 1.26 ± 0.024; in the assay with FLUOROURACIL (5 nM) it was 1.27 ± 0.032; with FLUOROURACIL (10 nM) it was 1.21 ± 0.036. Moreover, the surviving fraction in the assay with FLUOROURACIL (50 nM) stood at 1.02 ± 0.1; with FLUOROURACIL (100 nM), 1.03 ± 0.1; with FLUOROURACIL (500 nM) it was 0.931 ± 0.15; with FLUOROURACIL (1000 nM) it was 0.554 ± 0.017.
For the test system COLO320DM LARGE INTESTINE, the surviving fraction in the assay with ABT-737 (0.5 nM) stood at 1.09 ± 0.057; in the assay with ABT-737 (1 nM), 1.13 ± 0.085; in the assay with ABT-737 (5 nM) it was 1.04 ± 0.14; with ABT-737 (10 nM), 1.03 ± 0.12; with ABT-737 (50 nM), 1.19 ± 0.083; in the assay with ABT-737 (100 nM), 1.12 ± 0.03. Also, the surviving fraction with ABT-737 (500 nM) came out at 1.21 ± 0.13; with ABT-737 (1000 nM) it was 1.13 ± 0.055; with FLUOROURACIL (0.5 nM), 1.07 ± 0.14; with FLUOROURACIL (1 nM) it was 1.06 ± 0.051; with FLUOROURACIL (5 nM) it was 1.09 ± 0.019; with FLUOROURACIL (10 nM), 1.05 ± 0.1. In addition, the surviving fraction stood at 0.988 ± 0.083 with FLUOROURACIL (50 nM), 0.863 ± 0.053 with FLUOROURACIL (100 nM), 0.492 ± 0.035 with FLUOROURACIL (500 nM) and 0.347 ± 0.023 in the assay with FLUOROURACIL (1000 nM).
